Patent US20080076760A1, “2,3,4,5-TETRAHYDRO-1H-1,5-BENZODIAZEPINE DERIVATIVE AND MEDICINAL COMPOSITION” (priority 2004, published 2008)

How the values were obtained:
[1] = molecular target: human vasopressin V2 receptor (Homo sapiens, UniProt P30518); assay: Receptor binding study, [3H]AVP displacement on CHO cell membranes, human V2; settings: [3H]AVP displacement, CHO cell membrane, 25° C., one hour; read-out: Human V2 Ki
Method: Preparation of Chinese hamster ovary (Cho) cell which expresses human vasopressin receptor subtype and production of membrane sample of the cell was conducted according to the method of Tahara et al. (Br. J. Pharmacol., 125, 1463-1470, 1998).
(§1) (ii) Receptor Binding Study
In saturation binding experiment, the membrane sample and [^3H]AVP of several concentrations (0.125 nM to 4.0 nM) were mixed and incubated in microplate wells. In displacement experiment, [^3H]AVP of constant concentrations (0.5 nM to 1.0 nM) and the membrane sample were mixed with Compound A of several concentrations, and incubation was performed. Assay was performed using 50 mM of Tris-HCl (pH=7.4) (total amount: 250 μL) (buffer composition: containing […] of MgCl2 and 0.1% BSA), and incubation was performed at room temperature (25° C.) for one hour. After incubation, suck filtration was immediately performed and reaction was completed when the membrane sample was collected on a glass fiber filter fitted with the microplate. After the filter was washed with an ice-cold Tris-HCl buffer (50 mM Tris-HCl, 10 mM MgCl2, pH 7.4), radioactivity measurement was performed. Nonspecific binding was determined using nonradioactive-labeled AVP (1 μM).

[2] = molecular target: human vasopressin V1a receptor (Homo sapiens, UniProt P37288); assay: Receptor binding study, [3H]AVP displacement on CHO cell membranes, human V1a; settings: [3H]AVP displacement, CHO cell membrane, 25° C., one hour; read-out: Human V1a Ki
human vasopressin V1a receptor, sequence (P37288 whole entry): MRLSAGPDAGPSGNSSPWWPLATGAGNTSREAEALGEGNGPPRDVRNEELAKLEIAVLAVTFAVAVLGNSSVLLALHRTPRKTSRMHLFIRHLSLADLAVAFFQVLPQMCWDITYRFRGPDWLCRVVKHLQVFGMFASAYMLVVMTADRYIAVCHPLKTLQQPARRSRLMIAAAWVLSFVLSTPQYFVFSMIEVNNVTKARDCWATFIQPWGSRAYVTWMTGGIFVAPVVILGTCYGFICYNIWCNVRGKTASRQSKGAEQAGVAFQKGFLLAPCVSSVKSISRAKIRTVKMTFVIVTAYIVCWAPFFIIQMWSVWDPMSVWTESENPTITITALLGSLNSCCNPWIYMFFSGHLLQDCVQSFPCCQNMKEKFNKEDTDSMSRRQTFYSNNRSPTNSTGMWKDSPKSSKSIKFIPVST
Method: as §1
Assay was performed using 50 mM of Tris-HCl (pH=7.4) (total amount: 250 μL) (buffer composition: containing […] of MgCl2 and 0.1% BSA), and incubation was performed at room temperature (25° C.) for one hour. After incubation, suck filtration was immediately performed and reaction was completed when the membrane sample was collected on a glass fiber filter fitted with the microplate. After the filter was washed with an ice-cold Tris-HCl buffer (50 mM Tris-HCl, 10 mM MgCl2, pH 7.4), radioactivity measurement was performed. Nonspecific binding was determined using nonradioactive-labeled AVP (1 μM).

human vasopressin V2 receptor, sequence (P30518 whole entry): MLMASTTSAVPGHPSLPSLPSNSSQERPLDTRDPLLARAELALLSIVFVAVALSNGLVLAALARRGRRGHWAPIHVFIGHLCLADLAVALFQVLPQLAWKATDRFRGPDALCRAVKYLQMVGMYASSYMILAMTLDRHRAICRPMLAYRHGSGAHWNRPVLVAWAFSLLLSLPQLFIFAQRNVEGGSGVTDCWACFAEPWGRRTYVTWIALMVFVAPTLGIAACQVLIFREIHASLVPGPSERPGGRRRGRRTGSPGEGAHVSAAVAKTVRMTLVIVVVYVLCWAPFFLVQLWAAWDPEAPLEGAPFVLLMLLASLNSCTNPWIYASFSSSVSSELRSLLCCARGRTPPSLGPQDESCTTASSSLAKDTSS

Row | SMILES | Ki [1] | Ki [2]
1 | CCCN1CCN(CCOc2cc(C(=O)N3CC[C@H](C)Nc4ccccc43)ccc2-c2ccc(NCC)cc2)CC1 [Example 160, N-ethyl-4′-[[(4S)-4-methyl-2,3-4,5-tetrahydro-1H-1,5-benzodiazepin-1-yl]carbonyl]-2′-[2-(4-propyl-1-piperazinyl)ethoxy][1,1′-biphenyl]-4-amine] | 22 nM | 0.2 nM
2 | CNc1ccc(-c2ccc(C(=O)N3CC[C@H](C)Nc4ccccc43)cc2OCCN2CCOCC2)cc1 [Example 74, N-methyl-4′-[[(4S)-4-methyl-2,3,4,5-tetrahydro-1H-1,5-benzodiazepin-1-yl]carbonyl]-2′-[2-(4-morpholinyl)ethoxy][1,1′-biphenyl]-4-amine] | 6.1 nM | 0.24 nM
3 | CCCN(CC)CCCOc1cc(C(=O)N2CC[C@H](C)Nc3ccccc32)ccc1-c1ccc2[nH]ccc2c1 [Example 125, N-ethyl-3-[2-(1H-indol-5-yl)-5-[[(4S)-4-methyl-2,3,4,5-tetrahydro-1H-1,5-benzodiazepin-1-yl]carbonyl]phenoxy]-N-propyl-1-propaneamine] | 15 nM | 0.18 nM
4 | CCCN(C)CCCOc1cc(C(=O)N2CC[C@H](C)Nc3ccccc32)ccc1-c1ccc(NCC)c(F)c1 [Example 154, N-ethyl-3-fluoro-2′-[3-[methyl(propyl)amino]propoxy]-4′-[[(4S)-4-methyl-2,3-4,5-tetrahydro-1H-1,5-benzodiazepin-1-yl]carbonyl][1,1′-biphenyl]-4-amine] | 53 nM | 0.4 nM
5 | C[C@H]1CCN(C(=O)c2ccc(-c3ccc4[nH]ccc4c3)c(OCCCN3CCC(N4CCOCC4)CC3)c2)c2ccccc2N1 [Example 107, (4S)-1-[4-(1H-indol-5-yl)-3-[3-[4-(4-morpholinyl)-1-piperidinyl]propoxy]benzoyl]-4-methyl-2,3,4,5-tetrahydro-1H-1,5-benzodiazepine] | 33 nM | 0.13 nM
6 | CC1CCN(C(=O)c2ccc(-c3ccc4[nH]ccc4c3)c(OCCCCCN)c2)c2ccccc2N1 (stereo not shown) [Example 37, 5-[2-(1H-indol-5-yl)-5-[(4-methyl-2,3,4,5-tetrahydro-1H-1,5-benzodiazepin-1-yl)carbonyl]phenoxy]-1-pentaneamine] | 4.3 nM | 0.24 nM
7 | COc1ccc(S(=O)(=O)N2c3ccc(Cl)cc3[C@](O)(c3ccccc3Cl)[C@@H]2C(=O)N2CCC[C@H]2C(N)=O)cc1OC [SR49059, reference compound] | 143 nM | 
8 | CCCCN(C)CCCOc1cc(C(=O)N2CC[C@H](C)Nc3ccccc32)ccc1-c1ccc2[nH]ccc2c1 [Example 114, N-[3-[2-(1H-indol-5-yl)-5-[[(4S)-4-methyl-2,3,4,5-tetrahydro-1H-1,5-benzodiazepin-1-yl]carbonyl]phenoxy]propyl]-N-methyl-1-butaneamine] | 18 nM | 0.22 nM
9 | C[C@H]1CCN(C(=O)c2ccc(-c3ccc4[nH]ccc4c3)c(OCCCN(C)C(C)(C)C)c2)c2ccccc2N1 [Example 82, N-(tert-butyl)-N-[3-[2-(1H-indol-5-yl)-5-[[(4S)-4-methyl-2,3,4,5-tetrahydro-1H-1,5-benzodiazepin-1-yl]carbonyl]phenoxy]propyl]-N-methylamine] | 16 nM | 0.16 nM
10 | C[C@H]1CCN(C(=O)c2ccc(-c3ccc4[nH]ccc4c3)c(OCCN3CCN(C)CC3)c2)c2ccccc2N1 [Example 110, (4S)-1-[4-(1H-indol-5-yl)-3-[2-(4-methyl-1-piperazinyl)ethoxy]benzoyl]-4-methyl-2,3,4,5-tetrahydro-1H-1,5-benzodiazepine] | 6.5 nM | 0.13 nM
11 | C[C@H]1CCN(C(=O)c2ccc(-c3ccc(N)cc3)c(OCCN3CCOCC3)c2)c2ccccc2N1 [Example 60, 4′-[[(4S)-4-methyl-2,3,4,5-tetrahydro-1H-1,5-benzodiazepin-1-yl]carbonyl]-2′-[2-(4-morpholinyl)ethoxy][1,1′-biphenyl]-4-amine] | 84 nM | 0.27 nM
12 | CCN1CCC(OC(=O)c2cc(C(=O)N3CC[C@H](C)Nc4ccccc43)ccc2-c2ccc3[nH]ccc3c2)C1 (stereo partly drawn) [Example 145, 1-ethyl-3-pyrrolidinyl 2-(1H-indol-5-yl)-5-[[(4S)-4-methyl-2,3,4,5-tetrahydro-1H-1,5-benzodiazepin-1-yl]carbonyl]benzoate] | 20 nM | 0.12 nM
13 | CCCN(C)CCCOc1cc(C(=O)N2CC[C@H](C)Nc3ccccc32)ccc1-c1ccc(OC)cc1 [Example 131, N-[3-[[4′-methoxy-4-[[(4S)-4-methyl-2,3,4,5-tetrahydro-1H-1,5-benzodiazepin-1-yl]carbonyl][1,1′-biphenyl]-2-yl]oxy]propyl]-N-methyl-N-propylamine] | 83 nM | 0.26 nM
14 | CC1CCN(C(=O)c2ccc(-c3ccc4[nH]ccc4c3)c(OCCCN)c2)c2ccccc2N1 (stereo not shown) [Example 30, 3-[2-(1H-indol-5-yl)-5-[(4-methyl-2,3,4,5-tetrahydro-1H-1,5-benzodiazepin-1-yl)carbonyl]phenoxy]-1-propaneamine] | 17 nM | 0.091 nM
15 | CNc1ccc(-c2ccc(C(=O)N3CC[C@H](C)Nc4ccccc43)cc2OCCCN2C(=O)CNC2=O)cc1 [Example 106, 3-[3-[[4′-(methylamino)-4-[[(4S)-4-methyl-2,3,4,5-tetrahydro-1H-1,5-benzodiazepin-1-yl]carbonyl][1,1′-biphenyl]-2-yl]oxy]propyl]-2,4-imidazolidinedion] | 2 nM | 0.14 nM
16 | CC1CCN(C(=O)c2ccc(-c3ccc4[nH]ccc4c3)c(OCCCNC(=O)CN)c2)c2ccccc2N1 (stereo not shown) [Example 169, 2-amino-N-[3-[2-(1H-indol-5-yl)-5-[(4-methyl-2,3,4,5-tetrahydro-1H-1,5-benzodiazepin-1-yl]carbonyl]phenoxy]propyl]acetamide] | 4.9 nM | 0.13 nM
17 | C[C@H]1CCN(C(=O)c2ccc(-c3ccc4[nH]ccc4c3)c(OCCCN3CCC(NC=O)CC3)c2)c2ccccc2N1 [Example 87, 1-[3-[2-(1H-indol-5-yl)-5-[[(4S)-4-methyl-2,3,4,5-tetrahydro-1H-1,5-benzodiazepin-1-yl]carbonyl]phenoxy]propyl]-4-piperidinylformamide] | 8.7 nM | 0.086 nM
18 | CCN(C)CCCOc1cc(C(=O)N2CC[C@H](C)Nc3ccccc32)ccc1-c1ccc2[nH]ccc2c1 [Example 118, N-ethyl-3-[2-(1H-indol-5-yl)-5-[[(4S)-4-methyl-2,3,4,5-tetrahydro-1H-1,5-benzodiazepin-1-yl]carbonyl]phenoxy]-N-methyl-1-propaneamine] | 9.5 nM | 0.15 nM
19 | CCCN(C)CCCOc1cc(C(=O)N2CC[C@H](C)Nc3ccccc32)ccc1-c1ccc(OC(F)F)cc1 [Example 157, N-(3-[[4′-(difluoromethoxy)-4-[[(4S)-4-methyl-2,3,4,5-tetrahydro-1H-1,5-benzodiazepin-1-yl]carbonyl][1,1′-biphenyl]-2-yl]oxy]propyl]-N-methyl-N-propylamine] | 28 nM | 0.28 nM
20 | CCCCN1CCN(CCCOc2cc(C(=O)N3CC[C@H](C)Nc4ccccc43)ccc2-c2ccc3[nH]ccc3c2)CC1 [Example 122, (4S)-1-[3-[3-(4-butyl-1-piperazinyl)propoxy]-4-(1H-indol-5-yl)benzoyl]-4-methyl-2,3,4,5-tetrahydro-1H-1,5-benzodiazepine] | 5.1 nM | 0.21 nM
21 | COCCN(CCCOc1cc(C(=O)N2CC[C@H](C)Nc3ccccc32)ccc1-c1ccc2[nH]ccc2c1)CCOC [Example 84] | 6.5 nM | 0.1 nM
22 | CCCN(CCC)CCCOc1cc(C(=O)N2CC[C@H](C)Nc3ccccc32)ccc1-c1ccc2[nH]ccc2c1 [Example 79, N-[3-[2-(1H-indol-5-yl)-5-[[(4S)-4-methyl-2,3,4,5-tetrahydro-1H-1,5-benzodiazepin-1-yl]carbonyl]phenoxy]propyl]-N,N-dipropylamine] | 16 nM | 0.13 nM
23 | C[C@H]1CCN(C(=O)c2ccc(-c3ccc4[nH]ccc4c3)c(OCCCN3CCOCC3)c2)c2ccccc2N1 [Example 61, (4S)-1-[4-(1H-indol-5-yl)-3-[3-(4-morpholinyl)propoxy]benzoyl]-4-methyl-2,3,4,5-tetrahydro-1H-1,5-benzodiazepine] | 1.9 nM | 0.22 nM
24 | C[C@H]1CCN(C(=O)c2ccc(-c3ccc4[nH]ccc4c3)c(N3CCN(C)CC3)c2)c2ccccc2N1 [Example 149, (4S)-1-[4-(1H-indol-5-yl)-3-(4-methyl-1-piperazinyl)benzoyl]-4-methyl-2,3,4,5-tetrahydro-1H-1,5-benzodiazepine] | 1.9 nM | 0.29 nM
25 | C[C@H]1CCN(C(=O)c2ccc(-c3ccc4[nH]ccc4c3)c(OCCCN3CCC[C@H]3C(N)=O)c2)c2ccccc2N1 [Example 88, (2S)-1-[3[2-(1H-indol-5-yl)-5-[[(4S)-4-methyl-2,3,4,5-tetrahydro-1H-1,5-benzodiazepin-1-yl]carbonyl]phenoxy]propyl]-2-pyrrolidine carboxamide] | 3 nM | 0.3 nM
